Patent US12662451B2, “Chemical compounds and uses thereof” (GLAXOSMITHKLINE INTELLECTUAL PROPERTY (NO.4) LIMITED, priority 2023, dated 2026)

The compounds below were run on SW48 human colorectal cancer cells (MSI-H cancer cells) (assay: SW48 cell viability, CellTiter-Glo, 120 hours (Example B)). Settings: Homo sapiens, SW48, 120 h, read-out: SW48 pCC50, SW48 cell viability, 120 hours incubation (converted); Table 2.

Row | SMILES | CC50
1 | Cc1nc2cc(S(=O)(=O)N(C)c3ccc([C@H]4CN(CC(F)(F)F)C[C@@H](C(=O)Nc5ccc(C(F)(F)F)cc5F)[C@@H]4C(=O)O)cc3)ccc2n1C (relative stereo) [Example 358, rel-(3R,4S,5R)-3-((2-fluoro-4-(trifluoromethyl)phenyl)carbamoyl)-1-(2,2,2-trifluoroethyl)-5-(4-((N,1,2-trimethyl-1H-benzo[d]imidazole)-5-sulfonamido)phenyl)piperidine-4-carboxylic acid] | 0.631 µM
2 | Cc1nc2cc(S(=O)(=O)N(C)c3ccc([C@H]4C[C@H](N5CCC[C@H](F)C5)C[C@@H](C(=O)Nc5ccc(C(F)(F)F)cc5F)[C@@H]4C(=O)O)cc3)ccc2n1C (stereo in doubt) [Example 351, rel-(1R*,2R*,4S*,6S*)-2-((2-fluoro-4-(trifluoromethyl)phenyl)carbamoyl)-4-((S)-3-fluoropiperidin-1-yl)-6-(4-((N,1,2-trimethyl-1H-benzo[d]imidazole)-5-sulfonamido)phenyl)cyclohexane-1-carboxylic acid] | 10 µM
3 | Cc1nc2cc(S(=O)(=O)N(C)c3ccc([C@@H]4C[C@@H]5COC[C@@H]5[C@H](C(=O)Nc5ccc(C(F)(F)F)cc5F)[C@H]4C(=O)O)cc3)ccc2n1C (stereo in doubt) [Example 391, rel-(3aR,4R,5R,6S,7aR)-4-((2-fluoro-4-(trifluoromethyl)phenyl)carbamoyl)-6-(4-((N,1,2-trimethyl-1H-benzo[d]imidazole)-5-sulfonamido)phenyl)octahydroisobenzofuran-5-carboxylic acid] | 20 µM

What follows are compounds tested against T1, recombinant full-length WRN protein (1-1432) (Homo sapiens, UniProt Q14191) (assay: WRN unwinding activity, fluorogenic 384-well assay (Example A)). Settings: WRN unwinding activity, 4 hr; Table 2; read-out: 4 hr UNW pIC50 (converted).
T1 construct: recombinant full-length WRN protein (1-1432)
T1 sequence (Q14191 whole entry): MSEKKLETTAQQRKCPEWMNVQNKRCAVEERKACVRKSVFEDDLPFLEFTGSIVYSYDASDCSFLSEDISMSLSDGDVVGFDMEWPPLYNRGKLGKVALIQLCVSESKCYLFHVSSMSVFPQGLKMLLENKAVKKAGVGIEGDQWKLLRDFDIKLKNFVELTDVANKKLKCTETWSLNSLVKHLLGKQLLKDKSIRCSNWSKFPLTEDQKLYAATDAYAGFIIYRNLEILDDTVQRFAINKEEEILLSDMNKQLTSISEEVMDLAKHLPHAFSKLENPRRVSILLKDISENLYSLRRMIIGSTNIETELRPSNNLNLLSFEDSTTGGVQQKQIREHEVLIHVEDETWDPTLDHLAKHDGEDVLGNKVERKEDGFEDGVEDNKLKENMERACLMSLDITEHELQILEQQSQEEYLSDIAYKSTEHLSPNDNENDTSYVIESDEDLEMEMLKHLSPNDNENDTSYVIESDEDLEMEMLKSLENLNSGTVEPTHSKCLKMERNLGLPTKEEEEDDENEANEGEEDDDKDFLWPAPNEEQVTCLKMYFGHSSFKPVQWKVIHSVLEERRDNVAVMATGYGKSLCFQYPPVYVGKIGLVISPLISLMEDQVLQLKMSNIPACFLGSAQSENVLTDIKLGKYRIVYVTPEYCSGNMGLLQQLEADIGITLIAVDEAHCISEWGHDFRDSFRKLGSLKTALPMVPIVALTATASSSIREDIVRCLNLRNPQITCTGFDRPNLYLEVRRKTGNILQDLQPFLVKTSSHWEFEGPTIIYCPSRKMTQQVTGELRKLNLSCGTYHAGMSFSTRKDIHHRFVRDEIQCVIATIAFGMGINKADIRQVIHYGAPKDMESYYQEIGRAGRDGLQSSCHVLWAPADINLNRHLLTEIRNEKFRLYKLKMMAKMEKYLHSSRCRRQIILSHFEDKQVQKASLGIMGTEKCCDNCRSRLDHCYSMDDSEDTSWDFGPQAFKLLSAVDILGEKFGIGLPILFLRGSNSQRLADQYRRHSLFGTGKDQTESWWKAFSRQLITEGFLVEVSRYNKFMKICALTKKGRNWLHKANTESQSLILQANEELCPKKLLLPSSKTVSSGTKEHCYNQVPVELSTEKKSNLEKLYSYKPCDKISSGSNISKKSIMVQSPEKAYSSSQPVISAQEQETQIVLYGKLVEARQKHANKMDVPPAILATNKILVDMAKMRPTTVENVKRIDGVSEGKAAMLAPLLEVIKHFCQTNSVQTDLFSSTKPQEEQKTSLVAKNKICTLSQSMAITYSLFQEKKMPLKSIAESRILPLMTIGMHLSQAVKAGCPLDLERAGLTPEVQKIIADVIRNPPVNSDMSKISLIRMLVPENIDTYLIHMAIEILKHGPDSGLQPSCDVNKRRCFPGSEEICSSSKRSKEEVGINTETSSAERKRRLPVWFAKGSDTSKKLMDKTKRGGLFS
Format: biochemical
Experimental: Functional WRN unwinding activity can be measured using a fluorogenic plate based 384 well assay configured to measure the separation of labeled double stranded DNA substrate. Compounds were dosed out in neat DMSO with a 1:3 serial dilution scheme. 100 nL of compound was stamped into Greiner low volume black assay plates (Greiner Cat #784076) using the Echo Acoustic Dispenser to generate assay ready plates. All solutions were prepared in assay buffer (25 mM TRIS (pH8.0), 5 mM NaCl, 2 mM MgCl2, 1 mM DTT, 0.05% BSA) for this 10 μL low volume reaction. To prepare the solutions, a 2×WRN Enzyme cocktail was made containing 200 pM of recombinant full-length WRN protein (1-1432). A 2× Substrate cocktail was made to consist of both 200 μM ATP (any ultrapure ATP sample) and 12 nM of the fluorescent quenched labeled double stranded DNA oligomer (IDT Custom synthesis; 5′-5IABkFQ (SEQ ID NO. 1)/GCACTGGCCGTCGTTTTACGGTCGTGACT-3′ (SEQ ID NO. 2): 5′-TTTTTTACTTAACGACGGCCAGTGC (SEQ ID NO. 3)/36-TAMTSP/-3′ (SEQ ID NO. 4)). To start the reaction, 5 μL of assay buffer was added to a single column to serve as the low control. Following this, 5 μL of 2×WRN Enzyme was added in all wells except the buffer low control wells. The reaction plate was covered and incubated at ambient temperature for 4 hours to allow for time dependent inhibition if it existed. After 4 hours, the addition of 5 μL of 2×-ATP/DNA substrate cocktail was added across all wells of the assay plate. This initiated the reaction, as the plate was incubated at ambient temperature for 60 minutes for the unwinding reaction to occur. A 10 mM EDTA solution was prepared and added at 5 μL across the entire plate after 60 minutes to quench the samples for an endpoint measurement. Fluorescent intensity was measured using excitation and emission wavelengths of 525 nm and 598 nm, respectively. High florescent intensity (DMSO with buffer) represents full inhibition of unwinding activity and low florescent intensity (DMSO with enzyme) represents no inhibition of unwinding activity. The potency of the compounds was determined using a four-parameter inhibition model to generate pIC50, Hill Slope, maximum inhibition (see Table 2).

Row | IC50 | SMILES
4 | 794 nM | O=C(O)[C@@H]1[C@@H](c2ccc([C@H]3CCCOCC3)cc2)CCC[C@H]1C(=O)Nc1ccc(C(F)(F)F)cc1F (racemic) [Example 59, 1:1 Mixture of (1R,2R,6S)-2-((2-fluoro-4-(trifluoromethyl)phenyl)carbamoyl)-6-(4-((S)-oxepan-4-yl)phenyl)cyclohexane-1-carboxylic acid AND (1R,2R,6S)-2-((2-fluoro-4-(trifluoromethyl)phenyl)carbamoyl)-6-(4-((R)-oxepan-4-yl)phenyl)cyclohexane-1-carboxylic acid]
5 | 50.1 nM | O=C(O)[C@@H]1[C@@H](c2ccc([C@H]3CC34CCOCC4)cc2)CCC[C@H]1C(=O)Nc1ccc(C(F)(F)F)cc1F (racemic) [Example 65, 1:1 Mixture of (1R,2S,6R)-2-(4-((S)-6-oxaspiro[2.5]octan-1-yl)phenyl)-6-((2-fluoro-4-(trifluoromethyl)phenyl)carbamoyl)cyclohexane-1-carboxylic acid AND (1R,2S,6R)-2-(4-((R)-6-oxaspiro[2.5]octan-1-yl)phenyl)-6-((2-fluoro-4-(trifluoromethyl)phenyl)carbamoyl)cyclohexane-1-carboxylic acid]
6 | 2510 nM | C=CC1COC[C@@H]1c1ccc([C@H]2CCC[C@@H](C(=O)Nc3ccc(C(F)(F)F)cc3F)[C@@H]2C(=O)O)cc1 (mixture of isomers) [Example 66, 1:1 Mixture of (1R,2R,6S)-2-((2-fluoro-4-(trifluoromethyl)phenyl)carbamoyl)-6-(4-((3S)-4-vinyltetrahydrofuran-3-yl)phenyl)cyclohexane-1-carboxylic acid AND (1R,2R,6S)-2-((2-fluoro-4-(trifluoromethyl)phenyl)carbamoyl)-6-(4-((3R)-4-vinyltetrahydrofuran-3-yl)phenyl)cyclohexane-1-carboxylic acid]
7 | 2000 nM | COC(=O)[C@H]1C[C@H]1c1ccc([C@H]2CCC[C@@H](C(=O)Nc3ccc(C(F)(F)F)cc3F)[C@@H]2C(=O)O)cc1 (racemic) [Example 67, 1:1 Mixture of (1R,2R,6S)-2-((2-fluoro-4-(trifluoromethyl)phenyl)carbamoyl)-6-(4-((1R,2S)-2-(methoxycarbonyl)cyclopropyl)phenyl)cyclohexane-1-carboxylic acid AND (1R,2R,6S)-2-((2-fluoro-4-(trifluoromethyl)phenyl)carbamoyl)-6-(4-((1S,2S)-2-(methoxycarbonyl)cyclopropyl)phenyl)cyclohexane-1-carboxylic acid]
8 | 15800 nM | O=C(O)[C@@H]1[C@@H](c2ccc([C@H]3[C@@H]4CNCC[C@@H]43)cc2)CCC[C@H]1C(=O)Nc1ccc(C(F)(F)F)cc1F (racemic) [Example 70]
9 | 3.16 nM | Cc1nc2cc(S(=O)(=O)N(C)c3ccc([C@H]4CCC[C@H](C(=O)Nc5ccc(C(C)C)cc5)[C@@H]4C(=O)O)cc3)ccc2n1C (racemic) [Example 72, rac-(1R,2S,6S)-2-((4-isopropylphenyl)carbamoyl)-6-(4-((N,1,2-trimethyl-1H-benzo[d]imidazole)-5-sulfonamido)phenyl)cyclohexane-1-carboxylic acid]
10 | 5010 nM | Cc1nc2cc(S(=O)(=O)N(C)c3ccc([C@H]4CCC[C@@H](C(=O)NC56CC(C)(C5)C6)[C@@H]4C(=O)O)cc3)ccc2n1C (racemic) [Example 178]
11 | 12.6 nM | Cc1nc2cc(S(=O)(=O)N(C)c3ccc([C@H]4CCC[C@@H](CNc5ccc(C(C)C)cc5)[C@@H]4C(=O)O)cc3)ccc2n1C (racemic) [Example 200, rac-(1R,2R,6S)-2-(((4-isopropylphenyl)amino)methyl)-6-(4-((N,1,2-trimethyl-1H-benzo[d]imidazole)-5-sulfonamido)phenyl)cyclohexane-1-carboxylic acid]
12 | 25100 nM | Cc1nc2cc(S(=O)(=O)N(C)c3ccc([C@H]4CCC[C@@H](CN5CC6(C5)CC(F)(F)C6)[C@@H]4C(=O)O)cc3)ccc2n1C (racemic) [Example 201, rac-(1R,2R,6S)-2-((6,6-difluoro-2-azaspiro[3.3]heptan-2-yl)methyl)-6-(4-((N,1,2-trimethyl-1H-benzo[d]imidazole)-5-sulfonamido)phenyl)cyclohexane-1-carboxylic acid]
13 | 100000 nM | Cc1nc2cc(S(=O)(=O)N(C)c3ccc([C@H]4CCC[C@@H](CN(C)C5CCOCC5)[C@@H]4C(=O)O)cc3)ccc2n1C (racemic) [Example 202, rac-(1R,2R,6S)-2-((methyl(tetrahydro-2H-pyran-4-yl)amino)methyl)-6-(4-((N,1,2-trimethyl-1H-benzo[d]imidazole)-5-sulfonamido)phenyl)cyclohexane-1-carboxylic acid]
14 | 501 nM | O=C(O)[C@@H]1[C@@H](c2ccc(N3CCCCC3)cc2)CCC[C@H]1C(=O)Nc1ccc(C(F)(F)F)cc1F (racemic) [Example 222, rac-(1R,2R,6S)-2-((2-fluoro-4-(trifluoromethyl)phenyl)carbamoyl)-6-(4-(piperidin-1-yl)phenyl)cyclohexane-1-carboxylic acid]
15 | 6310 nM | O=C(O)[C@@H]1[C@@H](c2ccc(N3CCC4(CC3)CO4)cc2)CCC[C@H]1C(=O)Nc1ccc(C(F)(F)F)cc1F (racemic) [Example 228, rac-(1R,2S,6R)-2-(4-(1-oxa-6-azaspiro[2.5]octan-6-yl)phenyl)-6-((2-fluoro-4-(trifluoromethyl)phenyl)carbamoyl)cyclohexane-1-carboxylic acid]
16 | 1000 nM | COCCOc1cc([C@H]2CCC[C@@H](C(=O)Nc3ccc(C(F)(F)F)cc3F)[C@@H]2C(=O)O)ccc1C(F)(F)F (racemic) [Example 234, rac-(1R,2R,6S)-2-((2-fluoro-4-(trifluoromethyl)phenyl)carbamoyl)-6-(3-(2-methoxyethoxy)-4-(trifluoromethyl)phenyl)cyclohexane-1-carboxylic acid]
17 | 200 nM | COc1cc(C(F)(F)F)ccc1[C@H]1CCC[C@@H](C(=O)Nc2ccc(C(F)(F)F)cc2F)[C@@H]1C(=O)O (racemic) [Example 237, rac-(1R,2R,6S)-2-((2-fluoro-4-(trifluoromethyl)phenyl)carbamoyl)-6-(2-methoxy-4-(trifluoromethyl)phenyl)cyclohexane-1-carboxylic acid]
18 | 251 nM | CC(C)(O)C#Cc1cc([C@H]2CCC[C@@H](C(=O)Nc3ccc(C(F)(F)F)cc3F)[C@@H]2C(=O)O)ccc1C(F)(F)F (racemic) [Example 239, rac-(1R,2R,6S)-2-((2-fluoro-4-(trifluoromethyl)phenyl)carbamoyl)-6-(3-(3-hydroxy-3-methylbut-1-yn-1-yl)-4-(trifluoromethyl)phenyl)cyclohexane-1-carboxylic acid]
